Data set [1] concerns RAW264.7. Description: Cytotoxicity against mouse RAW264.7 cells assessed as cell viability after 16 hrs by MTT assay. Particulars: raw264.7, 16 h. The data set is classed as cell-based.
Data set [2] relates to RAW264.7. Description: Antiinflammatory activity in mouse RAW264.7 cells assessed as inhibition of LPS-induced nitric oxide production at 3.1 uM after 24 hrs by Griess assay relative to control. The data set is classed as functional. Particulars: RAW264.7, 24 h.
For data set [3], the system named is RAW264.7. Put plainly: Antiinflammatory activity in mouse RAW264.7 cells assessed as inhibition of LPS-induced nitric oxide production at 50 uM after 24 hrs by Griess assay relative to control. Type of data set: functional. Conditions: RAW264.7, 24 h.
Data set [4] relates to RAW264.7. Description: Antiinflammatory activity in mouse RAW264.7 cells assessed as inhibition of LPS-induced nitric oxide production at 25 uM after 24 hrs by Griess assay relative to control. Type of data set: functional. Particulars: RAW264.7, 24 h.
The subject of data set [5] is RAW264.7. Put plainly: Antiinflammatory activity in mouse RAW264.7 cells assessed as inhibition of LPS-induced nitric oxide production at 6.3 uM after 24 hrs by Griess assay relative to control. Type of data set: functional. Particulars: RAW264.7, 24 h.
The subject of data set [6] is RAW264.7. Put plainly: Antiinflammatory activity in mouse RAW264.7 cells assessed as inhibition of LPS-induced nitric oxide production after 24 hrs by Griess assay. Type of data set: functional, cell-based. Conditions: RAW264.7, 24 h.
The subject of data set [7] is RAW264.7. Description: Antiinflammatory activity in mouse RAW264.7 cells assessed as inhibition of LPS-induced nitric oxide production at 12.5 uM after 24 hrs by Griess assay relative to control. Type of data set: functional. Particulars: RAW264.7, 24 h.

SMILES strings stand for the structures.

`CC(C)(O)[C@H]1OC[C@@H]([C@H]2CC[C@@]3(C)[C@@H]4CC[C@H]5C(C)(C)C(=O)CC[C@@]56C[C@@]46CC[C@]23C)C[C@@H]1O`: the Activity result in the data set on RAW264.7 [1] was “Non-toxic”. Besides, the inhibition at 3.1 µM in the data set with RAW264.7 [2] was found to be 12.5%. In the data set on RAW264.7 [3], the inhibition at 50 µM stood at 76.2%. Further, the inhibition at 25 µM in the data set with RAW264.7 [4] was found to be 49%. In the data set on RAW264.7 [5], the inhibition at 6.3 µM came to 18.5%. Further, in the data set on RAW264.7 [6], the IC50 was 25.5 µM. Besides, the inhibition at 12.5 µM with RAW264.7 [7] was 23.2%.
Take `CC1(C)OC[C@@H]([C@H]2CC[C@@]3(C)[C@@H]4CC[C@H]5C(C)(C)C(=O)CC[C@@]56C[C@@]46CC[C@]23C)C[C@@H](O)[C@@H]1O`: in the data set with RAW264.7 [1], the Activity entry is on record as “Non-toxic”. Also, the inhibition at 3.1 µM with RAW264.7 [2] is 11.3%. In addition, the inhibition at 50 µM in the data set with RAW264.7 [3] came out at 58.9%. In the data set with RAW264.7 [4], the inhibition at 25 µM was 28.3%. In the data set on RAW264.7 [5], the inhibition at 6.3 µM is 4.5%. The IC50 with RAW264.7 [6] was 41.5 µM. Besides, the inhibition at 12.5 µM in the data set with RAW264.7 [7] came to 13.5%.
As for `C[C@H](C[C@@H](O)[C@H](O)C(C)(C)O)[C@H]1CC[C@@]2(C)[C@@H]3CC[C@H]4C(C)(C)C(=O)CC[C@@]45C[C@@]35CC[C@]12C`, the Activity result in the data set on RAW264.7 [1] is on record as “Non-toxic”. Moreover, the inhibition at 3.1 µM in the data set with RAW264.7 [2] was 12.8%. Also, the inhibition at 50 µM with RAW264.7 [3] amounted to 79.1%. Also, the inhibition at 25 µM in the data set on RAW264.7 [4] turned out to be 48.5%. Also, the inhibition at 6.3 µM with RAW264.7 [5] was 17.9%. In addition, the half-inhibitory concentration (IC50) in the data set with RAW264.7 [6] was 27.4 µM. For the same molecule, the inhibition at 12.5 µM in the data set with RAW264.7 [7] was determined as 23.8%.
Consider `C=C[C@@]1(C)CC(=O)[C@H]2[C@@H](CC[C@H]3C(C)(C)[C@@H](O)CC[C@]23C)C1`, for which the Activity result with RAW264.7 [1] is recorded as “Non-toxic”. Besides, the inhibition at 3.1 µM with RAW264.7 [2] is 19.8%. Moreover, the inhibition at 50 µM in the data set with RAW264.7 [3] is 92.4%. The inhibition at 25 µM in the data set with RAW264.7 [4] was determined as 63.8%. Besides, in the data set on RAW264.7 [5], the inhibition at 6.3 µM turned out to be 25.6%. Further, the half-inhibitory concentration (IC50) with RAW264.7 [6] was found to be 14.5 µM. The inhibition at 12.5 µM in the data set on RAW264.7 [7] was 41.5%.
Turning to `COC(=O)/C=C(\C)CC[C@@]1(C)[C@H](C)CC[C@@]2(C)C(C)=CC(=O)C[C@H]12`, the Activity entry in the data set with RAW264.7 [1] is on record as “Non-toxic”. Besides, the inhibition at 3.1 µM in the data set on RAW264.7 [2] stood at 19.4%. Besides, the inhibition at 50 µM in the data set on RAW264.7 [3] came out at 56.6%. For the same molecule, the inhibition at 25 µM in the data set on RAW264.7 [4] was determined as 35.3%. For the same molecule, in the data set on RAW264.7 [5], the inhibition at 6.3 µM is 19.9%. Also, in the data set with RAW264.7 [6], the IC50 came out at 45.2 µM. In addition, the inhibition at 12.5 µM in the data set on RAW264.7 [7] was determined as 24.8%.
As to `COc1ccc2c(c1)c(CC(=O)O)c(C)n2C(=O)c1ccc(Cl)cc1` [INDOMETHACIN], the inhibition at 3.1 µM with RAW264.7 [2] was 21.5%. Besides, in the data set with RAW264.7 [3], the inhibition at 50 µM came to 57.9%. Further, in the data set on RAW264.7 [4], the inhibition at 25 µM is 44.3%. In addition, the inhibition at 6.3 µM with RAW264.7 [5] turned out to be 24.5%. Moreover, the inhibition at 12.5 µM in the data set on RAW264.7 [7] came out at 38.5%.

For the origin of these results see ChEMBL document CHEMBL3580557, “Anti-inflammatory Terpenoids from the Leaves and Twigs of Dysoxylum gotadhora” (J Nat Prod, 2015).
